Test results from the NIST ThermoML archive (doi:10.1021/je100170v).

How the values were obtained:
[1] = Liquid; for viscosity: 101.3 kPa
[2] = xn = mol fraction of the nth substance listed; details: 101 kPa, Liquid; for speed of sound: Sing-around technique in a fixed-path interferometer

COCCO [2-methoxyethan-1-ol]
[1], 101 kPa
Details	mass density [kg/m3]
298.15 K	959.5
308.15 K	952.1
318.15 K	945.8

Details	speed of sound [m/s]
[1], 298.15 K, 101 kPa, Sing-around technique in a fixed-path interferometer	1339.3

[1]
Details	viscosity [mPa·s]
298.15 K	1.543
308.15 K	1.256
318.15 K	1.047

COCCO [2-methoxyethan-1-ol] + CCCCCCCCO
[2]
Details	mass density, 298.15 K [kg/m3]	mass density, 308.15 K [kg/m3]	mass density, 318.15 K [kg/m3]	speed of sound, 298.15 K [m/s]	viscosity, 298.15 K [mPa·s]	viscosity, 308.15 K [mPa·s]	viscosity, 318.15 K [mPa·s]
x2 = 0	959.5	952.1	945.8	1339.3	1.543	1.256	1.047
x2 = 0.061	943	935.6	929.5	1334.3	1.677	1.368	1.141
x2 = 0.1275	927.1	920	913.8	1329.3	1.822	1.454	1.209
x2 = 0.2003	912.1	904.9	898.8	1323	1.983	1.582	1.304
x2 = 0.2804	897.4	890.5	884.4	1318	2.145	1.749	1.426
x2 = 0.3688	883.4	876.4	870.5	1314.6	2.408	1.948	1.571
x2 = 0.4671	869.9	862.9	857	1315.4	2.774	2.19	1.781
x2 = 0.5769	857	850	844	1320	3.432	2.67	2.062
x2 = 0.7004	844.6	837.6	831.5	1326.5	4.238	3.19	2.466
x2 = 0.8402	832.8	825.6	819.4	1335.8	5.412	4.012	3.064
